Patent US20250129049A1, “1H-PYRAZOLE-3-AMINE DERIVATIVE HAVING BICYCLIC BACKBONE” (Sumitomo Pharma Co., Ltd., priority 2021, published 2025)

Legend:
CHK1 kinase = CHK1 kinase (Homo sapiens (Human), UniProt O14757)
ES-2 cells = test: Cell growth suppression experiment (ES-2); type: cell-based; details: Homo sapiens, 48 h, cultured 2 days, CellTiter-Glo 3D
Protocol: ES-2 cells were obtained from the American Type Culture Collection (ATCC). These cells were cultured at 37° C. in the presence of 5% CO2 in a McCoy's 5a medium containing 10% fetal bovine serum and 1% penicillin/streptomycin.
500 cells were seeded for each well in a 384-well plate, and the evaluated compound was added to the final DMSO concentration of 0.1% to culture the cells for 2 days. After completion of the culture, the cell viability rate was calculated using CellTiter-Glo (registered trademark) 3D Reagent (Promega, G968B).

hERG current = hERG current (Homo sapiens (Human), UniProt Q12809); test: cell-based
Sequence of hERG current (Q12809 whole entry): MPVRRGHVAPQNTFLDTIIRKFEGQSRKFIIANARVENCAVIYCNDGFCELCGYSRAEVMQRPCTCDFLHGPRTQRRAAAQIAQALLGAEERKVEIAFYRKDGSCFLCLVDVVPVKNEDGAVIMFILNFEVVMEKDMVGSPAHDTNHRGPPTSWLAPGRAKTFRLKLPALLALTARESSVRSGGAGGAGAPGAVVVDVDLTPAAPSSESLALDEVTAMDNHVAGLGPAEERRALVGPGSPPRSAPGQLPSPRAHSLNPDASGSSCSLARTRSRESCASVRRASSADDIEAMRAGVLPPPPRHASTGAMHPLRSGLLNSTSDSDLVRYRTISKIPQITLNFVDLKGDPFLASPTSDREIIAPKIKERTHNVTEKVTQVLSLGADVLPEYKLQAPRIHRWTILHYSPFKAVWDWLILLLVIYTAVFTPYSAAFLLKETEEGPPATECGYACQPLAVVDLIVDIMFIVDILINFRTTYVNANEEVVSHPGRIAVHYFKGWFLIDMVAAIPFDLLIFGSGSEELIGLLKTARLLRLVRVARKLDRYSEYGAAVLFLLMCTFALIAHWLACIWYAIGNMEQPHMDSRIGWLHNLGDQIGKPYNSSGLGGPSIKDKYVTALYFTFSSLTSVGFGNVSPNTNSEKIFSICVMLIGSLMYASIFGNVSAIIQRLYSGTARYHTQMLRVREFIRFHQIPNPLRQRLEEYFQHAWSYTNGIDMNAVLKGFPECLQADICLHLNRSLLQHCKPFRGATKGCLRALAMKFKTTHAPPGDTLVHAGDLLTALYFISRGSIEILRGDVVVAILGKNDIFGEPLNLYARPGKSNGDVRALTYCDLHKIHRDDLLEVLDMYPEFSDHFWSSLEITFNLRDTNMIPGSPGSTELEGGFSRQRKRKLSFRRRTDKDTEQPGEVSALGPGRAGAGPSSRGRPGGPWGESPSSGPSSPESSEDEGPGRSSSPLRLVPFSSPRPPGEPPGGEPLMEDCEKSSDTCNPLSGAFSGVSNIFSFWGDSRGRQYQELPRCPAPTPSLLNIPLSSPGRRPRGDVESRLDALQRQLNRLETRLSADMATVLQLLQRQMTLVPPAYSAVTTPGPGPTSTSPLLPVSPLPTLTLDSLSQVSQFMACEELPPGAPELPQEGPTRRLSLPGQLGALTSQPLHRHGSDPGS

Sequence of CHK1 kinase (O14757 whole entry): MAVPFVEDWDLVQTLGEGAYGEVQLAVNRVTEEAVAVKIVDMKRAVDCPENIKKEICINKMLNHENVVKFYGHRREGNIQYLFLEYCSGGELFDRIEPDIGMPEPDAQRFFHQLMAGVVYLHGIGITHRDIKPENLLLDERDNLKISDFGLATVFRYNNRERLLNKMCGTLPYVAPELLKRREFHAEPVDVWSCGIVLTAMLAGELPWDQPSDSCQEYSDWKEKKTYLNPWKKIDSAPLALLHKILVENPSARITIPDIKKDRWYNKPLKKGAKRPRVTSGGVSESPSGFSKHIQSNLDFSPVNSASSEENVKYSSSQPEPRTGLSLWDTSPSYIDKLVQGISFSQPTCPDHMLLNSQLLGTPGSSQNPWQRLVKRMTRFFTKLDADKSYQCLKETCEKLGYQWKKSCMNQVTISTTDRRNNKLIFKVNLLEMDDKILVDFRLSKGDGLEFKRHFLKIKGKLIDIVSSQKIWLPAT

Compound	IC50 (CHK1 kinase) [nM]	IC50 (ES-2 cells) [nM]	IC50 (hERG current) [nM]
N#Cc1cnc(Nc2cc(-c3c(OCCCN)ccc4cccnc34)[nH]n2)cn1 [Example 1, 5-({5-[7-(3-aminopropoxy)quinolin-8-yl]-1H-pyrazol-3-yl}amino)pyrazine-2-carbonitrile]	0.37	4.9	
N#Cc1cnc(Nc2cc(-c3c(OCCCN)ccc4ccoc34)[nH]n2)cn1 [Example 2, 5-({5-[6-(3-aminopropoxy)-1-benzofuran-7-yl]-1H-pyrazol-3-yl}amino)pyrazine-2-carbonitrile]	0.25	2.9	
N#Cc1cnc(Nc2cc(-c3c(OCCCN)ccc4c3OCC4)[nH]n2)cn1 [Example 3, 5-({5-[6-(3-aminopropoxy)-2,3-dihydro-1-benzofuran-7-yl]-1H-pyrazol-3-yl}amino)pyrazine-2-carbonitrile]		4	530
N#Cc1cnc(Nc2cc(-c3c(OCC4(CN)CC4)ccc4c3OCC4)[nH]n2)cn1 [Example 4, 5-{[5-(6-{[1-(aminomethyl)cyclopropyl]methoxy}-2,3-dihydro-1-benzofuran-7-yl)-1H-pyrazol-3-yl]amino}pyrazine-2-carbonitrile]	0.27	9.1	300
CC1(COc2ccc3c(c2-c2cc(Nc4cnc(C#N)cn4)n[nH]2)OCC3)CNC1 [Example 5, 5-[(5-{6-[(3-methylazetidin-3-yl)methoxy]-2,3-dihydro-1-benzofuran-7-yl}-1H-pyrazol-3-yl)amino]pyrazine-2-carbonitrile]		6.7	
N#Cc1cnc(Nc2cc(-c3c(OCCCN)cnc4ccnn34)[nH]n2)cn1 [Example 7, 5-({5-[6-(3-aminopropoxy)pyrazolo[1,5-a]pyrimidin-7-yl]-1H-pyrazol-3-yl}amino)pyrazine-2-carbonitrile]	1.71	469	
N#Cc1cnc(Nc2cc(-c3c(OCC(F)(F)CN)cnc4cccnc34)[nH]n2)cn1 [Example 9, 5-({5-[3-(3-amino-2,2-difluoropropoxy)-1,5-naphthyridin-4-yl]-1H-pyrazol-3-yl}amino)pyrazine-2-carbonitrile]	0.64	4.7	
N#Cc1cnc(Nc2cc(-c3c(OCC4(CN)CC4)cnc4cccnc34)[nH]n2)cn1 [Example 10, 5-{[5-(3-{[1-(aminomethyl)cyclopropyl]methoxy}-1,5-naphthyridin-4-yl)-1H-pyrazol-3-yl]amino}pyrazine-2-carbonitrile]	0.34	6.6	
CC1(COc2cnc3cccnc3c2-c2cc(Nc3cnc(C#N)cn3)n[nH]2)CNC1 [Example 11, 5-[(5-{3-[(3-methylazetidin-3-yl)methoxy]-1,5-naphthyridin-4-yl}-1H-pyrazol-3-yl)amino]pyrazine-2-carbonitrile]	0.39	14.8	
N#Cc1cnc(Nc2cc(-c3c(OCCCN)cnc4c3OCC4)[nH]n2)cn1 [Example 13, 5-({5-[6-(3-aminopropoxy)-2,3-dihydrofuro[3,2-b]pyridin-7-yl]-1H-pyrazol-3-yl}amino)pyrazine-2-carbonitrile]	0.42	20	
CC1(COc2cnc3c(c2-c2cc(Nc4cnc(C#N)cn4)n[nH]2)OCC3)CNC1 [Example 15, 5-[(5-{6-[(3-methylazetidin-3-yl)methoxy]-2,3-dihydrofuro[3,2-b]pyridin-7-yl}-1H-pyrazol-3-yl)amino]pyrazine-2-carbonitrile]	0.23	7.2	
Cc1nc2ccc(OCCCN)c(-c3cc(Nc4cnc(C#N)cn4)n[nH]3)c2o1 [Example 16, 5-({5-[6-(3-aminopropoxy)-2-methyl-1,3-benzoxazol-7-yl]-1H-pyrazol-3-yl}amino)pyrazine-2-carbonitrile]	0.45	489	
N#Cc1cnc(Nc2cc(-c3c(OCC4(CN)CC4)ccc4ccnn34)[nH]n2)cn1 [Example 17, 5-{[5-(6-{[1-(aminomethyl)cyclopropyl]methoxy)pyrazolo[1,5-a]pyridin-7-yl)-1H-pyrazol-3-yl]amino}pyrazine-2-carbonitrile]	0.27	3.7	
CC1(COc2ccc3ccnn3c2-c2cc(Nc3cnc(C#N)cn3)n[nH]2)CNC1 [Example 18, 5-[(5-{6-[(3-methylazetidin-3-yl)methoxy]pyrazolo[1,5-a]pyridin-7-yl)-1H-pyrazol-3-yl)amino]pyrazine-2-carbonitrile]	0.34	4.7	
N#Cc1cnc(Nc2cc(-c3c(OCC4(CN)CC4)ccc4ccoc34)[nH]n2)cn1 [Example 19, 5-{[5-(6-{[1-(aminomethyl)cyclopropyl]methoxy}-1-benzofuran-7-yl}-1H-pyrazol-3-yl]amino}pyrazine-2-carbonitrile]	0.26	4.6	
N#Cc1cnc(Nc2cc(-c3c(OCC4(CN)CC4(F)F)ccc4ccoc34)[nH]n2)cn1 (stereo not shown) [Example 20, 5-{[5-(6-{[1-(aminomethyl)-2,2-difluorocyclopropyl]methoxy)-1-benzofuran-7-yl)-1H-pyrazol-3-yl]amino}pyrazine-2-carbonitrile]		16.3	
N#Cc1cnc(Nc2cc(-c3c(O[C@@H]4CC[C@@H](N)C4)cnc4c3OCC4)[nH]n2)cn1 [Example 21, 5-{[5-(6-{[(1R,3R)-3-aminocyclopentyl]oxy)-2,3-dihydrofuro[3,2-b]pyridin-7-yl)-1H-pyrazol-3-yl]amino}pyrazine-2-carbonitrile]		11.8	
N#Cc1cnc(Nc2cc(-c3c(OCC4(C(F)F)CNC4)cnc4c3OCC4)[nH]n2)cn1 [Example 22, 5-{[5-(6-{[3-(difluoromethyl)azetidin-3-yl]methoxy}-2,3-dihydrofuro[3,2-b]pyridin-7-yl)-1H-pyrazol-3-yl]amino}pyrazine-2-carbonitrile]	0.39	13.7	
N#Cc1cnc(Nc2cc(-c3c(OCC4(F)CNC4)cnc4c3OCC4)[nH]n2)cn1 [Example 23, 5-[(5-{6-[(3-fluoroazetidin-3-yl)methoxy]-2,3-dihydrofuro[3,2-b]pyridin-7-yl}-1H-pyrazol-3-yl)amino]pyrazine-2-carbonitrile]	0.3	6.8	
C[C@@H](Oc1cnc2c(c1-c1cc(Nc3cnc(C#N)cn3)n[nH]1)OCC2)C1CNC1 [Example 25, 5-[(5-{6-[(1R)-1-(azetidin-3-yl)ethoxy]-2,3-dihydrofuro[3,2-b]pyridin-7-yl}-1H-pyrazol-3-yl)amino]pyrazine-2-carbonitrile]	0.43	6.4	
N#Cc1cnc(Nc2cc(-c3c(OC[C@H]4CCNC4)cnc4c3OCC4)[nH]n2)cn1 [Example 26, 5-{[5-(6-{[(3S)-pyrrolidin-3-yl]methoxy}-2,3-dihydrofuro[3,2-b]pyridin-7-yl)-1H-pyrazol-3-yl]amino}pyrazine-2-carbonitrile]	0.34	9.4	
CNCCCOc1cnc2c(c1-c1cc(Nc3cnc(C#N)cn3)n[nH]1)OCC2 [Example 27, 5-[(5-{6-[3-(methylamino)propoxy]-2,3-dihydrofuro[3,2-b]pyridin-7-yl}-1H-pyrazol-3-yl)amino]pyrazine-2-carbonitrile]	0.22	8.5	
C[C@@H](CN)COc1cnc2c(c1-c1cc(Nc3cnc(C#N)cn3)n[nH]1)OCC2 [Example 30, 5-[(5-{6-[(2S)-3-amino-2-methylpropoxy]-2,3-dihydrofuro[3,2-b]pyridin-7-yl}-1H-pyrazol-3-yl)amino]pyrazine-2-carbonitrile]	0.43	14.8	
C=C(CN)COc1cnc2c(c1-c1cc(Nc3cnc(C#N)cn3)n[nH]1)OCC2 [Example 31, 5-{[5-(6-{[2-(aminomethyl)prop-2-en-1-yl]oxy)-2,3-dihydrofuro[3,2-b]pyridin-7-yl)-1H-pyrazol-3-yl]amino}pyrazine-2-carbonitrile]	0.31	13.8	
NCCCOc1cnc2c(c1-c1cc(Nc3cnc(Cl)cn3)n[nH]1)OCC2 [Example 32, N-{5-[6-(3-aminopropoxy)-2,3-dihydrofuro[3,2-b]pyridin-7-yl]-1H-pyrazol-3-yl}-5-chloropyrazin-2-amine]	0.33	21.5	
COC(=O)c1cnc(Nc2cc(-c3c(OCCCN)cnc4c3OCC4)[nH]n2)cn1 [Example 33, methyl 5-({5-[6-(3-aminopropoxy)-2,3-dihydrofuro[3,2-b]pyridin-7-yl]-1H-pyrazol-3-yl}amino)pyrazine-2-carboxylate]	9.28	> 1000	
N#Cc1cnc(Nc2cc(-c3c(O[C@@H]4CCC[C@H]4CN)cnc4cccnc34)[nH]n2)cn1 [Example 34, 5-{[5-(3-{[(1R,2S)-2-(aminomethyl)cyclopentyl]oxy}-1,5-naphthyridin-4-yl)-1H-pyrazol-3-yl]amino}pyrazine-2-carbonitrile]	0.75	5.5	
N#Cc1cnc(Nc2cc(-c3c(O[C@@H]4CCC[C@H](N)C4)cnc4cccnc34)[nH]n2)cn1 [Example 36, 5-{[5-(3-{[(1R,3S)-3-aminocyclohexyl]oxy}-1,5-naphthyridin-4-yl)-1H-pyrazol-3-yl]amino}pyrazine-2-carbonitrile]	0.46	6	
N#Cc1cnc(Nc2cc(-c3c(O[C@@H]4CC[C@@H](N)C4)cnc4cccnc34)[nH]n2)cn1 [Example 37, 5-{[5-(3-{[(1R,3R)-3-aminocyclopentyl]oxy}-1,5-naphthyridin-4-yl)-1H-pyrazol-3-yl]amino}pyrazine-2-carbonitrile]	0.49	6.8	
N#Cc1cnc(Nc2cc(-c3c(OCC4(CN)CC(F)(F)C4)cnc4cccnc34)[nH]n2)cn1 [Example 38, 5-{[5-(3-{[1-(aminomethyl)-3,3-difluorocyclobutyl]methoxy)-1,5-naphthyridin-4-yl)-1H-pyrazol-3-yl]amino}pyrazine-2-carbonitrile]	0.93	8.1	
